# Test results taken from publication PMC3911823 (The FEBS journal, 2011).
# Residue numbers refer to the chain shown, from its start. pIC50: −log10 of the molar value.
# Columns and labels:
# P450 2B4 H172A [1] = target: T1, P450 2B4 H172A (Oryctolagus cuniculus, UniProt P00178, H172A); experiment: Inhibition of 7-EFC O-deethylation by imidazole inhibitors; assay type: biochemical, rabbit (Oryctolagus cuniculus)
# T1 sequence (P00178 with tags, fused parts or gaps H172A limits assumed): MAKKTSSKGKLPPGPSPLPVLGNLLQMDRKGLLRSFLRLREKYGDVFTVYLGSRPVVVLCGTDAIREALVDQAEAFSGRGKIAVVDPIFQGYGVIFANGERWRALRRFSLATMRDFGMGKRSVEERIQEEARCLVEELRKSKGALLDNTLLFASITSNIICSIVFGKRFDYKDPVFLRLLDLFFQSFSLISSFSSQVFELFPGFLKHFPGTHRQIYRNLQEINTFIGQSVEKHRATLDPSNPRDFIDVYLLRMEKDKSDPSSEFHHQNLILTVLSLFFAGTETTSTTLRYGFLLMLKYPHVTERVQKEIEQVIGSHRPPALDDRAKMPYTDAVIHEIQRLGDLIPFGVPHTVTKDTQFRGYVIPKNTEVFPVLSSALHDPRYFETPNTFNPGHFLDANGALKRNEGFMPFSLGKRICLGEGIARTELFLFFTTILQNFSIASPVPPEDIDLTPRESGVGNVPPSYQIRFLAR
# P450 2B4 H172Q = target: T2, P450 2B4 H172Q (Oryctolagus cuniculus, UniProt P00178, H172Q); experiment: as above; assay type: biochemical, rabbit (Oryctolagus cuniculus)
# T2 sequence (P00178 with tags, fused parts or gaps H172Q limits assumed): T1 sequence (P00178 with tags, fused parts or gaps H172A limits assumed) with A153Q
# P450 2B4 E474Q = target: T3, P450 2B4 E474Q (Oryctolagus cuniculus, UniProt P00178, E474Q); experiment: as above; assay type: biochemical, rabbit (Oryctolagus cuniculus)
# T3 sequence (P00178 with tags, fused parts or gaps E474Q limits assumed): T1 sequence (P00178 with tags, fused parts or gaps H172A limits assumed) with A153H, E455Q
# P450 2B4 H172A [2] = target: T1, P450 2B4 H172A; assay type: biochemical, rabbit (Oryctolagus cuniculus)
# P450 2B4 E474D = target: T4, P450 2B4 E474D (Oryctolagus cuniculus, UniProt P00178, E474D); assay type: biochemical, rabbit (Oryctolagus cuniculus)
# T4 sequence (P00178 with tags, fused parts or gaps E474D limits assumed): T1 sequence (P00178 with tags, fused parts or gaps H172A limits assumed) with A153H, E455D
# P450 2B4 H172F = target: T5, P450 2B4 H172F (Oryctolagus cuniculus, UniProt P00178, H172F)
# T5 sequence (P00178 with tags, fused parts or gaps H172F limits assumed): T1 sequence (P00178 with tags, fused parts or gaps H172A limits assumed) with A153F
compound,measurement,setting,value
"Clc1ccc(-c2c[nH]cn2)cc1 [4-CPI, 4-(4-chlorophenyl)imidazole]",pIC50,P450 2B4 H172A [1],6.51
same,Ratio 4-CPI IC50/Bifonazole IC50,"P450 2B4 H172A [1]; 2B4 H172A, 50 μM 7-EFC as substrate",0.53
same,pIC50,P450 2B4 H172Q,6.66
same,Ratio 4-CPI IC50/Bifonazole IC50,"P450 2B4 H172Q; 2B4 H172Q, 50 μM 7-EFC as substrate",0.29
same,pIC50,P450 2B4 E474Q,6.30
same,Ratio 4-CPI IC50/Bifonazole IC50,"P450 2B4 E474Q; 2B4 E474Q, 50 μM 7-EFC as substrate",0.62
"O=c1ccc2nc3ccc(OCc4ccccc4)cc3oc-2c1 [7-BR, 7-benzyloxyresorufin]",decrease (change) in kcat versus wild type,P450 2B4 H172A [2],~ 19 fold
same,kcat,P450 2B4 H172A [2],0.4 ± 0.1 min⁻¹
same,kcat/S50,P450 2B4 H172A [2],0.08
same,S50,P450 2B4 H172A [2]; Hill equation,5.0 ± 0.8 µM
same,decrease (change) in kcat versus wild type,P450 2B4 E474D,~ 2.5 fold
same,kcat,P450 2B4 E474D,3.1 ± 0.2 min⁻¹
same,kcat/S50,P450 2B4 E474D,0.5
same,S50,P450 2B4 E474D; Hill equation,6.2 ± 0.7 µM
same,kcat,P450 2B4 H172F,0 min⁻¹
same,kcat/S50,P450 2B4 H172F,0
same,substrate turnover (activity),P450 2B4 H172F,inactive
